This is an account of results in ChEMBL document CHEMBL5604062, “ASAP - ZIKV NS2B-NS3 protease fluorescence dose response” (2024).

Molecules are shown by their SMILES. “And” between values parts separate entries of the source, which are not always exact repeats. Equal entries are not always repeated. Some results are limits rather than exact numbers.

This test concerns the target Nonstructural protein 3 (Zika virus, UniProt A0A024AXB9). Kind of test: Functional biochemical assay to identify treatments for viral infectious disease that targets Zika NS2B-NS3 protease. Utilizing a direct enzyme activity measurement method, reading the fluorescence intensity is used to characterize the relative potency of inhibitors as IC50. Also noted: species or system PRVABC59.

Sequence of Nonstructural protein 3 (A0A024AXB9 whole entry): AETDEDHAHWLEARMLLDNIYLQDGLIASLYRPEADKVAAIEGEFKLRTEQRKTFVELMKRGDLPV

As for `c1ccc(COc2cccc3[nH]cc(CN4CCC(c5cscn5)CC4)c23)cc1`, the IC50 (as a rule, the midpoint of a concentration-inhibition curve) was more than 99.5 µM.

The molecule `NCc1cccc(NC(=O)[C@@H](NC(=O)OCc2ccccc2)c2cccc(OC[C@H]3CCCO3)c2)c1` showed an IC50 of more than 99.5 µM. The value for `NCc1cccc([C@@H]2C[C@H]2c2cc(Cl)cc(NC(=O)OCc3ccccc3)c2)c1` was 18.1 µM and 11.3 µM. The same measure for `Cn1cc(N2CCN(Cc3c[nH]c4ccccc34)CC2)cn1`: more than 99.5 µM; for `O=c1[nH]c2cccc(N3CCN(Cc4c[nH]c5ccccc45)CC3)c2[nH]1`: more than 99.5 µM; for `CC(=O)N[C@H](C(=O)N[C@H]1C(=O)O[C@H]1C)c1ccc(OCc2ccccc2)cc1`: more than 99.5 µM. The value for `Cc1ncc(C(=O)Nc2cccc(CN)c2)cc1NC(=O)OCc1ccccc1` was more than 99.5 µM; that for `O=C(Nc1cc(Cl)cc(C(=O)Nc2ncc3n2CCNC3)c1)OCc1ccccc1` was more than 99.5 µM. Regarding `NCc1cccc(NC(=O)[C@@H]2[C@@H]3CCCCC[C@@H]3[C@@H]2NC(=O)OCc2ccccc2)c1`, half-maximal inhibition (IC50) required 54.7 µM. In turn, `NC(=O)c1cnccc1N1CCN(Cc2c[nH]c3ccccc23)CC1` gave an IC50 of more than 99.5 µM. The same measure for `O=C1COc2c(cccc2N2CCN(Cc3c[nH]c4ccccc34)CC2)N1`: 69.8 µM; for `c1ccc(OC2CCN(Cc3c[nH]c4ccccc34)CC2)cc1`: more than 99.5 µM. As for `NCc1cccc(NC(=O)[C@@H](NC(=O)OCc2ccccc2)c2cccc(OCC3CCC3)c2)c1`, the IC50 amounted to 27.3 µM. The same measure for `CN(C)Cc1nnc(NC(=O)[C@@H](NC(=O)OCc2ccccc2)c2ccc(OCc3ccccc3)cc2)s1`: more than 99.5 µM; for `NCc1cccc(NC(=O)c2cc(NC(=O)OCc3ccccc3)cc(C(N)=O)c2)c1`: more than 99.5 µM. The value for `CN(C)Cc1csc(NC(=O)[C@@H](NC(=O)OCc2ccccc2)c2ccc(OCc3ccccc3)cc2)n1` was more than 99.5 µM; that for `Cc1nc(COc2ccc([C@@H](NC(=O)OCc3ccccc3)C(=O)Nc3cccc(CN)c3)cc2)cs1` was more than 99.5 µM.

On to `c1ccc2c(CN3CCN(c4ccncc4)CC3)c[nH]c2c1`, for which inhibition was half-maximal at 98 µM (IC50). For the molecule `O=C(Nc1cc(Cl)cc(C(=O)Nc2nc3c(s2)CCNC3)c1)OCc1ccccc1`, half-maximal inhibition (IC50) was put at 53.5 µM. The value for `COc1c(C)cc(C(=O)Nc2cccc(CN)c2)cc1NC(=O)OCc1ccccc1` was more than 99.5 µM; that for `NCc1cccc(NC(=O)Cc2cc(Cl)cc(NC(=O)OCc3ccccc3)c2)c1` was 46 µM; that for `COc1ccc(CN(C)C)cc1NC(=O)[C@@H](NC(=O)OCc1ccccc1)c1ccc(OCc2ccccc2)cc1` was more than 99.5 µM. For `CC(C)(C)OC(=O)Nc1cccc2[nH]cc(CN3CCC(c4cscn4)CC3)c12`, the IC50 was more than 99.5 µM. The same measure for `NCc1nc(CNC(=O)c2cc(Cl)cc(NC(=O)OCc3ccccc3)c2)cs1`: more than 99.5 µM; for `NCc1cccc(CS(=O)(=O)c2cc(Cl)cc(NC(=O)OCc3ccccc3)c2)c1`: more than 99.5 µM. The same measure for `c1ccc(COc2ccc3[nH]cc(CN4CCC(c5cscn5)CC4)c3c2)cc1`: more than 99.5 µM; for `Cc1nccn1CCOc1cccc([C@H](NC(=O)OCc2ccccc2)C(=O)Nc2cccc(CN)c2)c1`: more than 99.5 µM.

As for `NCc1cccc(NC(=O)[C@H](NC(=O)OCc2ccccc2)c2cccc(OCc3ccncc3)c2)c1`, the IC50 was more than 99.5 µM. `NCc1cccc(NC(=O)[C@H](NC(=O)OCc2ccccc2)C2CCN(Cc3ccccc3)CC2)c1` came in with an IC50 of more than 99.5 µM. The value for `NCc1cccc(NC(=O)[C@@H](NC(=O)OCc2ccccc2)c2ccc(OC[C@H]3CCCCO3)cc2)c1` was more than 99.5 µM; that for `O=C(Nc1cc(Cl)cc(C(=O)Nc2n[nH]c3c2CNC3)c1)OCc1ccccc1` was 40.3 µM. The value for `CCN1CC[C@H](COc2cccc([C@H](NC(=O)OCc3ccccc3)C(=O)Nc3cccc(CN)c3)c2)C1` was more than 99.5 µM. With `CC(C)(C)c1ccc2[nH]cc(CN3CCC(c4cscn4)CC3)c2c1`, the IC50 is more than 99.5 µM.

Regarding `NCc1cccc(NC(=O)c2cc(Cl)cc(F)c2F)c1`, half-maximal inhibition (IC50) was put at 59.3 µM.

Turning to `O=C(Nc1cc(Cl)cc(C(=O)Nc2n[nH]c3c2CNC32CC2)c1)OCc1ccccc1`, the IC50 is more than 99.5 µM. The same measure for `CN1CCC[C@H]1COc1cccc([C@@H](NC(=O)OCc2ccccc2)C(=O)Nc2cccc(CN)c2)c1`: more than 99.5 µM; for `NCc1cccc(NC(=O)c2cc(NC(=O)OCc3ccccc3)cc(C(F)(F)F)c2F)c1`: more than 99.5 µM. The value for `CCc1cccc2c(CN3CCC(c4cscn4)CC3)c[nH]c12` was more than 99.5 µM; that for `Cc1cc(NC(=O)OCc2ccccc2)cc(C(=O)Nc2cccc(CN)c2)c1C` was more than 99.5 µM. The value for `COc1cc(Br)ccc1[C@@H](NC(=O)OCc1ccccc1)C(=O)Nc1cccc(CN)c1` was 68.9 µM; that for `CN(C)Cc1ccc(N2CCN(Cc3c[nH]c4ccccc34)CC2)nc1` was more than 99.5 µM. Molecule `CC(C)(C)c1cc(CN2CCC(c3cscn3)CC2)n[nH]1` came in with an IC50 of more than 99.5 µM.

Consider `NCc1cccc(NC(=O)c2cc3c(c(NC(=O)OCc4ccccc4)c2)OCC3)c1`, for which the IC50 is 78.4 µM. That is a double-digit micromolar value. The same measure for `Cc1ccc(NC(=O)OC(C)(C)C)c2[nH]cc(CN3CCC(c4cscn4)CC3)c12`: more than 99.5 µM. The same measure for `O=C(Nc1cc(Cl)cc(C(=O)Nc2cnc3n2CCNC3)c1)OCc1ccccc1`: more than 99.5 µM.

`NCc1cccc(NC(=O)[C@@H]2CCC[C@@H](NC(=O)OCc3ccccc3)C2)c1` gave an IC50 of more than 99.5 µM. The value for `c1ccc(CC2CCN(Cc3c[nH]c4ccccc34)CC2)cc1` was 89.6 µM; that for `CC(C)N1C(=O)C[C@H](C(=O)Nc2cccc(CN)c2)[C@H]1c1ccc(Cl)c(F)c1` was more than 99.5 µM. The value for `O=C(N[C@@H](C(=O)Nc1n[nH]c2c1CNC21CC1)c1ccc(OCc2ccccc2)cc1)OCc1ccccc1` was more than 99.5 µM. The value for `c1cnc2[nH]cc(C3CCN(Cc4c[nH]c5ccncc45)CC3)c2c1` was 73.3 µM; that for `Cn1nc(NC(=O)[C@@H](NC(=O)OCc2ccccc2)c2ccc(OCc3ccccc3)cc2)c2c1CNC2` was more than 99.5 µM. `O=C(Nc1cc(Cl)cc(C(=O)Nc2cc3n(n2)CCNC3)c1)OCc1ccccc1` registered an IC50 of more than 99.5 µM.

For `Clc1cc(Cl)c2c(CN3CCC(c4cscn4)CC3)c[nH]c2c1`, the IC50 was 74.3 µM. The same measure for `CN(C)Cc1cccc(NC(=O)[C@H](NC(=O)OCc2ccccc2)c2ccc(OCc3ccccc3)cc2)c1`: more than 99.5 µM; for `NCc1cccc(NC(=O)c2cc(Cl)cc(CNC(=O)OCc3ccccc3)c2)c1`: 22.1 µM; for `NCc1cccc(NC(=O)[C@H](NC(=O)OCc2ccccc2)c2cccc(OC[C@H]3COCCO3)c2)c1`: more than 99.5 µM. The value for `NCc1cccc(C(=O)Nc2cc(Cl)cc(NC(=O)OCc3ccccc3)c2)c1` was 16.6 µM. The same measure for `c1ccc2c(CN3CC(c4cscn4)C3)c[nH]c2c1`: more than 99.5 µM; for `c1cc(-c2cc(CN3CCC(c4cscn4)CC3)n[nH]2)ccn1`: more than 99.5 µM; for `NCc1cccc(NC(=O)[C@@H](NC(=O)OCc2ccccc2)c2ccc(Br)c(Cl)c2)c1`: 9.66 µM and 8.77 µM.

Regarding `C1=C(c2cccnc2)CN(Cc2c[nH]c3ccccc23)CC1`, the IC50 is more than 99.5 µM. The same measure for `O=C(Nc1cc(Cl)cc(C(=O)Nc2nc3c(s2)CNC3)c1)OCc1ccccc1`: 85.7 µM. The same measure for `C#Cc1cc(NC(=O)OCc2ccccc2)cc(C(=O)Nc2cccc(CN)c2)c1`: 36.4 µM; for `c1nc(C2CCN(Cc3cc(C4CCOCC4)[nH]n3)CC2)cs1`: more than 99.5 µM. The same measure for `COc1cc(NC(=O)OCc2ccccc2)cc(C(=O)Nc2cccc(CN)c2)c1OC`: more than 99.5 µM; for `N#Cc1cccc2[nH]cc(CN3CCC(c4cscn4)CC3)c12`: more than 99.5 µM. Take `O=C1O[C@H]2CCN(Cc3ccc(OCc4ccccc4)cc3)C[C@H]12`: the IC50 is more than 99.5 µM. The value for `O=C1Nc2ncccc2C[C@H]1NCc1n[nH]c2ccccc12` was more than 99.5 µM; that for `Cc1[nH]c2ccccc2c1CN1CCC(c2c[nH]c3ncccc23)CC1` was 5.81 µM; that for `c1cnc2[nH]cc(C3CCN(Cc4c[nH]c5cnccc45)CC3)c2c1` was more than 99.5 µM. The same measure for `O=C(N[C@@H](C(=O)Nc1ncc([C@H]2CCCN2)s1)c1ccc(OCc2ccccc2)cc1)OCc1ccccc1`: more than 99.5 µM; for `c1cncc(-c2cc(CN3CCC(c4cscn4)CC3)n[nH]2)c1`: more than 99.5 µM; for `NCc1cccc(S(=O)(=O)Cc2cc(Cl)cc(NC(=O)OCc3ccccc3)c2)c1`: 92.3 µM. The same measure for `Cc1ncc(NC(=O)OCc2ccccc2)cc1C(=O)Nc1cccc(CN)c1`: more than 99.5 µM; for `NCc1cccc(NC(=O)c2cc(N)cc(NC(=O)OCc3ccccc3)c2)c1`: more than 99.5 µM. The molecule `CN1CCc2nc(NC(=O)[C@@H](NC(=O)OCc3ccccc3)c3ccc(OCc4ccccc4)cc3)sc2C1` gave an IC50 of more than 99.5 µM.

As to `CCN1CC[C@@H](COc2ccc([C@@H](NC(=O)OCc3ccccc3)C(=O)Nc3cccc(CN)c3)cc2)C1`, the IC50 was more than 99.5 µM.

As for `NCc1cn(CCNC(=O)c2cc(Cl)cc(NC(=O)OCc3ccccc3)c2)nn1`, the IC50 was more than 99.5 µM.

On to `Cn1nc(NC(=O)c2cc(Cl)cc(NC(=O)OCc3ccccc3)c2)c2c1CNC2`, for which the IC50 was more than 99.5 µM. The same measure for `NCc1cccc(NC(=O)c2cc(Cl)ccc2NS(=O)(=O)c2ccccc2)c1`: more than 99.5 µM; for `c1ccc([C@H](NCc2c[nH]c3ccccc23)c2cccnc2)cc1`: more than 99.5 µM; for `Cc1ocnc1COc1cccc([C@H](NC(=O)OCc2ccccc2)C(=O)Nc2cccc(CN)c2)c1`: more than 99.5 µM. The same measure for `CC[C@@H](NCc1c[nH]c2ccccc12)c1cccnc1`: more than 99.5 µM. The value for `NC[C@@H]1CN(c2cc(N3CC[C@H](N)C3)cc3c2COB3O)C(=O)O1` was 72 µM; that for `O=C(O)c1cc(Cl)ccc1NS(=O)(=O)c1ccc(Nc2ccccc2F)nc1` was 46.7 µM. With `N#Cc1cccc(N2CCN(Cc3c[nH]c4ccccc34)CC2)c1`, the IC50 was 85.6 µM. This IC50 lies about 1.8-fold higher than the previous one. The same measure for `NCc1cccc(NC(=O)C[C@@H](NC(=O)OCc2ccccc2)c2ccc(Cl)c(Br)c2)c1`: 14.4 µM and 12.8 µM. The same measure for `c1ccc([C@@H]2C[C@H]3C[C@@H]2C[C@H]3NCc2n[nH]c3ccccc23)cc1`: more than 99.5 µM.
